Laboratory results as given in patent publication US12534496B2, “Polymorphic forms of Cyclo (-His-Pro) and methods of use to treat kidney disease” (NovMetaPharma Co., Ltd., priority 2018, dated 2026).
Entries after “also recorded” stand apart in the source; their conditions may differ.

Legend:
Assay type in all cases: physicochemical
[1] = Solution state chemical stability in water/acetone and EtOH/water/MtBE (HPLC purity); settings: water/acetone and EtOH/H2O/MtBE, 50 °C for 20 h
Method: Solution state chemical stability of the compound was studied in different solvent systems at different temperatures (Table 4). The solution was held at 50° C. and 80° C., and purity of the solution was tracked. The compound was generally stable for at least 20 hours.

[2] = Dynamic vapor sorption (DVS) at 25 °C with post-DVS XRPD; settings: for Post-DVS XRPD form: after DVS cycles at 25 °C
Method: DVS was carried out by placing an approximately 10-20 mg sample into a mesh vapour sorption balance pan and loaded into a DVS Intrinsic Dynamic Vapour Sorption Balance by Surface Measurement Systems. The sample was subjected to a ramping profile from 40 to 90% relative humidity (RH) at 10% increments, maintaining the sample at each step until a stable weight had been achieved (dm/dt 0.004%, minimum step length 30 minutes, maximum step length 500 minutes) at 25° C. After completion of the sorption cycle, the sample was dried using the same procedure to 0% RH and then a second sorption cycle back to 40% RH. Two cycles were performed. The weight change during the sorption/desorption cycles were plotted, allowing for the hygroscopic nature of the sample to be determined. XRPD analysis was then carried out on any solid retained.
Approximately, 10-20 mg of sample was placed into a mesh vapor sorption balance pan and loaded into a DVS Intrinsic dynamic vapor sorption balance by Surface Measurement Systems. The sample was subjected to a ramping profile from 40-90% relative humidity (RH) at 10% increments, maintaining the sample at each step until a stable weight had been achieved (dm/dt 0.004%, minimum step length 30 minutes, maximum step length 500 minutes) at 25° C. After completion of the sorption cycle, the sample was dried using the same procedure to 0% RH and then a second sorption cycle back to 40% RH. Two cycles were performed. The weight change during the sorption/desorption cycles were plotted, allowing for the hygroscopic nature of the sample to be determined. XRPD analysis was then carried out on any solid retained.

[3] = GMP stability study of CHP anhydrate and CHP hydrate under accelerated conditions (total impurities); settings: for Growth of total Impurities: 40 °C/75% RH
Method: CHP anhydrate (Pattern 1) and hydrate (Pattern 2) compounds were manufactured under GMP conditions. A stability study for the CHP anhydrate compound was conducted under ccelerated conditions (40±5° C./75±5% RH) for six months and room temperature conditions (25±5° C./60±5% RH) for 12 months. A further stability study for the CHP hydrate compound was conducted under accelerated conditions (40±5° C./75±5% RH) for 6 months (Table 18).

[4] = Drug substance stability study, 25±2 °C/60±5% RH (appearance, assay, impurities, chiral, water content, XRPD); settings: 25° C./60% RH (table title)
Method: Packaging: Sample at each individual time point was packaged into double Antistatic LDPE bags both secured with cable ties. The sample packed for the same storage condition were stored together within a fiber drum, and closed with metal lid. All packages were prepared in the same fashion and labeled.
Time zero will be the day samples are placed on station. Initial testing results were from the release testing as long as samples are put on station within 30 days of the release test date, otherwise, initial was repeated.
Study Requirements: Total 22.5 g sample (Total 21 g sample if initial test is not needed): • 1.5 g for initial test if needed; • 21 g sample will be divided into 14 parts, 1.5 g for each parts, sample for each part should be weighed into double Antistatic LDPE bags both secured with cable ties. The stability samples for each storage condition are stored together within a fiber drum, closed with metal lid, and then stored at 25±2° C./60+5% RH (9 bags) and 40±2° C./75±5% RH (5 bags), respectively. Sampling Time:
Samples stored not more than 6 months were pulled on schedule date or within 2 business days after the scheduled date. Samples stored more than 6 months were pulled within +2 business days of the scheduled date.
Stability samples stored for one month to one year, and greater than one year were analyzed and completed within 10 and 20 business days after the samples pulled out from stability chamber, respectively. If time zero testing was performed, it was analyzed within 10 business days after study initiation.

[5] = Vacuum oven heating of Pattern 2 (XRPD)
Method: i. 80° C. Heating of Pattern 2 • Ca. 2.2 g of pattern 2 material (prepared as per Section 5.6.1) was placed inside a vacuum oven set to 50° C.; • After 1 hour, a sample was taken and analyzed by XRPD; • Vial was returned to the vacuum oven and the temperature increased to 60° C.; • After 30 minutes, a sample was taken and analyzed by XRPD; • Vial was returned to the vacuum oven and the temperature increased to 80° C.; • After 18 hours at 80° C., a sample was taken and analyzed by XRPD; ii. Fast Rotary Evaporation in Ethanol/DCM • 1 g of received CHP pattern 1 was weighed in to a round bottom flask and dissolved in 40 mL of ethanol; • Once the solid had dissolved, 2 mL of dichloromethane was pipetted into the flask; • The flask was then attached to a rotary evaporator and fast evaporated at ambient temperature under vacuum; • A pale beige solid was recovered an analyzed by XRPD. 7. pH Solubility Assessment

[6] = 1-week stability assessment (40 °C/75% RH, 80 °C, ambient light; XRPD, HPLC purity)

- Chemical stability under both crystallization conditions [1]: stable
- Post-DVS XRPD form [2]: no change in form
- Post-DVS XRPD form ([2]; listed as CHP pattern 2): no change in form
- DVS water loss in equivalents ([2]; below 10% RH, 25 °C): 0.5 equiv. water
- DVS weight loss ([2]; below 10% RH, 25 °C): 3.5 wt. %
- Growth of total Impurities ([3]; 0M): 0%
- Growth of total Impurities ([3]; 1M): 0%
- Growth of total Impurities ([3]; 3M, listed as CHP hydrate (pattern 2)): 0.00%
- Growth of total Impurities ([3]; 6M, listed as CHP hydrate (pattern 2)): 0.05%
- Quality changes during stability study ([3]; accelerated conditions for 6 months): no significant quality changes
- Appearance ([4]; 3M): Off-white powder
- Assay by HPLC ([4]; 3M): 103.3%
- Chiral, HPLC: chiral purity ([4]; 3M): 100.0%
- Impurities, HPLC: H-His-OH ([4]; 3M): 0.08%
- Impurities, HPLC: each other individual (unspecified) impurity ([4]; 3M): individual <0.05%
- Water content (KF) ([4]; 3M): 7.1%
- Appearance ([4]; 6M): Off-white powder
- Assay by HPLC ([4]; 6M): 103.4%
- Chiral, HPLC: chiral purity ([4]; 6M): 100.0%
- Impurities, HPLC: H-His-OH ([4]; 6M): 0.08%
- Impurities, HPLC: each other individual (unspecified) impurity ([4]; 6M): individual <0.05%
- Water content (KF) ([4]; 6M): 7.2%
- Appearance ([4]; Initial): Off-white powder
- Assay by HPLC ([4]; Initial): 103.4%
- Chiral, HPLC: chiral purity ([4]; Initial): 100.0%
- Impurities, HPLC: H-His-OH ([4]; Initial): 0.07%
- Impurities, HPLC: each other individual (unspecified) impurity ([4]; Initial): individual <0.05%
- Water content (KF) ([4]; Initial): 7.4%
- XRPD ([4]; Initial, vs reference standard of Pattern 2 (PS03027-15-H)): Conform to reference
- XRPD form after heating ([5]; oven 80 °C, additional 18 hours): mixture of Pattern 1 and 2
- Purity after 1 week ([6]; HPLC, 40 °C/75% RH): 99.5%
- Purity after 1 week ([6]; HPLC, 80 °C): 99.4%
- Purity after 1 week ([6]; HPLC, Ambient): 99.5%
- Purity of starting material ([6]; HPLC, before storage): 99.5%
Structure (SMILES): O=C1N[C@@H](Cc2cnc[nH]2)C(=O)N2CCC[C@@H]12 [Pattern 2, Pyrrolo [1,2-a]pyrazine-1,4-dione, hexahydro-3-(1H-imidazol-5-ylmethyl)-, hydrate (1:1), (3S, 8aS)-]
- XRPD form after heating ([5]; vacuum oven 50 °C, 1 hour): predominately Pattern 2 with some Pattern 1 peaks
- XRPD form after heating ([5]; vacuum oven, further 30 minutes (1.5 hour in total)): predominantly Pattern 2 with some Pattern 1 peaks
- Change in HPLC purity after 7 days ([6]; all conditions (40 °C/75% RH, 80 °C, ambient light)): no drop in purity; also recorded: No change in purity
